Data set [1] is described as follows: Solubility of citrate of Compound 1 depending on pH. The data set is classed as physicochemical.
Data set [2] in a line: Bioavailability on oral administration, citrate of Compound 1 compared to free base. The data set is classed as in vivo. To be noted: orally administered.

Read-outs that look alike come from different tables or passages of the source.

A word on the solubility: it is the dissolved amount per volume that the medium holds. For `Cc1cccc(C)c1CNc1cc(C(=O)N2CCC2)cn2c(C)c(C)nc12.O=C(O)CC(O)(CC(=O)O)C(=O)O` [citrate of Compound 1, azetidin-1-yl{8-[(2,6-dimethylbenzyl)amino]-2,3-dimethylimidazo[1,2-a]pyridin-6-yl}methanone citrate], the solubility was less than 1500 µg/mL in data set [1] (aqueous buffer, pH 3 or higher, particularly pH 3.3 or higher, read-out: solubility); “very excellent solubility” in data set [1] (below pH 3); “excellent solubility” in data set [1] (pH 3 to 4.7, due to SBE-β-CD). For the same compound, the “AUC compared to Compound 1 free base” value in data set [2] is “at least five”. Further, the “Cmax compared to Compound 1 free base” value in data set [2] is on record as not below 11 times. Besides, the “time to reach highest blood concentration” value in data set [2] (compared to Compound 1 free base) is on record as “within a short time compared to Compound 1”.

The record behind these values is patent US20260232572A1, “INJECTABLE COMPOSITION, PHARMACEUTICAL FORMULATION INCLUDING THE SAME, AND METHOD FOR PREPARING THE COMPOSITION” (ONCONIC THERAPEUTICS INC., priority 2023, published 2026).
